Columns and labels:
[1] = test system: Kv3 channels in FS neurons; assay: Whole-cell voltage clamp of Kv3 delayed rectifier currents in acutely dissociated FS neurons; format: cell-based, rat
Description: Tissue preparation. […] Hippocampal interneurons and GP were identified as CaMKII negative, GAD67 and parvalbumin positive neurons by single cell RT-PCR detection of corresponding mRNAs following physiology experiments (see below).
Electrophysiology. Whole-cell recordings used standard techniques^27,28. The internal solution consisted of (in mM): 30-90 K2SO4, 0-60 N-methyl-D-glucamine, 2 MgCl2, 40 HEPES, 5 EGTA, 12 phosphocreatine, 2 Na2ATP, 0.2 Na3GTP, and 0.1 leupeptin, pH 7.2 with H2SO4 (osmolarity 260-270 mOsm/l). The external solution consisted of (in mM): 140 Na-isethionate, 2 KCl, 4 MgCl2, 10 HEPES, 12 glucose and 0.001 TTX, pH 7.35 with NaOH (osmolarity 295-305 mOsm/l). The internal solution for current clamp recordings consisted of (in mM) 110 potassium methylsulphate, 2 MgCl2, 40 HEPES, 5 EGTA, 12 phosphocreatine, 2 Na2ATP, 0.2 Na3GTP, and 0.1 leupeptin, pH 7.2 with H2SO4 (osmolarity 260-270 mOsm/l). In the case of current clamp recordings, TTX was omitted from external solution. For the recordings in the presence of Ca^+2 ions EGTA was omitted from internal solution and 4 mM of MgCl2 was substituted by 2 mM of CaCl2 and 2 mM of MgCl2. All drugs were obtained from Sigma (St. Louis, […]) except BDS-I that was obtained from Alomone Labs (Jerusalem, Israel). Solutions were applied by gravity fed sewer pipe system. Recordings were obtained with Axon Instruments 200 patch-clamp amplifier and controlled and monitored with a PC running pClamp software (version 7.0) (Axon Instruments Inc., Union City, Calif.). […] After seal rupture, series resistance (2-10 MΩ) was compensated (75-90%) and periodically monitored. […] Activation data were fit with a Boltzmann equation of the form: 1/(1+exp ((Vh−V)/Vc), V stands for membrane potential. In the case of Kv3.4a current, an estimate of peak current was obtained by single exponential fit of decay phase extrapolated to the start of test pulse. In all other instances the voltage dependence of the currents was obtained from the amplitude of tail currents measured following 200 msec long voltage steps. […]

Kv3.1 channel = biological target: T1, Kv3.1 channel (Rattus norvegicus, UniProt P25122); conditions: low micromolar concentrations; cited from earlier work
T1 sequence (P25122 1-585): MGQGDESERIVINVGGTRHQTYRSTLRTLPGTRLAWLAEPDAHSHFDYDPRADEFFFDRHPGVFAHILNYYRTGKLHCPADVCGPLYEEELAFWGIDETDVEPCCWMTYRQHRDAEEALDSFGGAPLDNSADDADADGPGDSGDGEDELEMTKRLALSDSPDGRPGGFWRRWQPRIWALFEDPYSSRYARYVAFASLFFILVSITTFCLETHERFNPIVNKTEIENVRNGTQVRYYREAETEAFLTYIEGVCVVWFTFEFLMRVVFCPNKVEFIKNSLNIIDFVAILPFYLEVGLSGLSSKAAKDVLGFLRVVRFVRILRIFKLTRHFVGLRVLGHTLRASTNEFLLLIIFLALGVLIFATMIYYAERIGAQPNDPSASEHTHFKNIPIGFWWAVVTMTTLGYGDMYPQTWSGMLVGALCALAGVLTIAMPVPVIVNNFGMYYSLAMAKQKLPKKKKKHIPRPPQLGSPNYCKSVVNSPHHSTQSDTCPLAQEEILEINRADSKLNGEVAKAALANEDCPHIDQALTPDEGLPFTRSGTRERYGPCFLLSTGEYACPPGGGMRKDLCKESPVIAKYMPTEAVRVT

Chain of Kv3 channels in FS neurons (Q63734 1-608 limits assumed): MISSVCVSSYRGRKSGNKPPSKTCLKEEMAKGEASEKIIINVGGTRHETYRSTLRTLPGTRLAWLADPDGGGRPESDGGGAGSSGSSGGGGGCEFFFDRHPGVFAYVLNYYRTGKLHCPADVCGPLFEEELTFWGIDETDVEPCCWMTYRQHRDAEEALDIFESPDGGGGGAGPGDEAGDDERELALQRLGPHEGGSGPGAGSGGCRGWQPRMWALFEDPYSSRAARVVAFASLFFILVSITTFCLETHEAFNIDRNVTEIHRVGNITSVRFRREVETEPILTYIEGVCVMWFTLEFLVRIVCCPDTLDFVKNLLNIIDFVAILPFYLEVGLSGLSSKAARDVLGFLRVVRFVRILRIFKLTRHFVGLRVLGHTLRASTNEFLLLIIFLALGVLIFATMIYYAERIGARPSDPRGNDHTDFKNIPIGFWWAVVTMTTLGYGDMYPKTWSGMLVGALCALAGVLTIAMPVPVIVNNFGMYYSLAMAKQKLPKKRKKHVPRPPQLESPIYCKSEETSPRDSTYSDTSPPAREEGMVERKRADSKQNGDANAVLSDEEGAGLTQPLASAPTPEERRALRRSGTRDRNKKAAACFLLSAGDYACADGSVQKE

BDS-I (AAPCFCSGKPGRGDLWILRGTCPGGYGYTSNCYKWPNICCYPH)
block of TEA-sensitive, Kv3 channel currents in FS neurons [1]: efficiently blocked
effect on delayed rectifier currents evoked by depolarization in FS neurons [1]: slowed the rising phase of delayed rectifier currents evoked by depolarization and reduced their amplitude
time for substantial unblocking of channels containing Kv3.4 subunits ([1]; at +20 mV): more than 5 msec
effects on Kv3.1 channel currents (Kv3.1 channel): only minor effects

— patent US7629323B2, “Manipulation of neuronal ion channels” (Northwestern University, priority 2003, dated 2009)
